Series [1] has as its system streßinduzierten Magenulzera. Put plainly: Inhibition of stress-induced gastric ulcers (immobilisation ulcer, method of Brodie). It counts as in vivo, Ratten. The note with it: Rattus norvegicus, read-out: Immobilisationsulkus ED50. An excerpt: Die Hemmwirkung auf die Bildung von streßinduzierten Magenulzera wurde nach der Methode von D.A.Brodie, Gastroenterolody, 38 (1960), 50, an weiblichen Ratten im Gewicht von 150 - 180 Gramm vom VEB Versuchstierproduktion Schönwalde bestimmt. Die Nahrungskarenz vor Versuchsbeginn betrug 48 Stunden, bei Wasser ad libitum. Die Testsubstanzen wurden unmittelbar vor Versuchsbeginn oral, mittels Schlundsonde appliziert. Die Immobilisation erfolgte mittels Gipsbinden über 18 Stunden. Während der Versuchsdauer war die Raumtemperatur konstant 20° C. Nach Versuchsende wurden die Tiere durch Äther getötet, die Mägen entnommen, entlang der kleinen Kurvatur aufgeschnitten und die Drüsenschleimhautdefekte nach Zahl und Länge im Vergleich zur Kontrollgruppe beurteilt. Für die statistische Berechnung diente die Probit-Regressions-Analyse.

For series [2], the system named is Größe der Pupille. The note with it: mouse, in vivo, po.
Description: (§1) Die Wirkung der Substanzen auf die Größe der Pupille wurde an weiblichen Mäusen im Gewicht zwischen 18 und 23 Gramm nach der Versuchsordnung von R.Pulewka, Exp.Pathol. […] 30, 60, 90, 120, 180 und 240 Minuten nach oraler Präparatgabe wurde die Pupillenweite bestimmt und die x-fache Veränderung zum Ausgangswert berechnet. Als ED3-fach gilt die Dosis, bei der eine dreifache Pupillenerweiterung im Vergleich zum Ausgangswert auftritt.
Series [3] deals with phenylbutazoninduzierte Magenulzera. As to the kind of experiment: Inhibition of phenylbutazone-induced gastric ulcers (model of Beattie et al.). It counts as in vivo, Ratten. Conditions: Rattus norvegicus, 48 h; female rats, oral dose half an hour before each s.c. injection of 150 mg/kg Phenylbutazon on two days; read-out: Phenylbutazonulkus ED50. Here is the method:
Die Hemmwirkung der Verbindungen auf phenylbutazoninduzierte Magenulzera wurde in Anlehnung an das Modell von Beattie und Mitarbeiter, Arzneimittelforschung, 29, (1979), 1812 ermittelt. Für die Untersuchung kamen weibliche Ratten der hauseigenen Zucht im Gewicht von 150 - 180 Gramm zur Anwendung.
Die Nahrungskarenz vor Versuchsbeginn betrug 24 Stunden, bei Wasser ad libitum. Während des Versuchs wurden die Tiere im Klimaraum bei einer Temperatur zwischen 22° C und 23° C gehalten. Die Ratten erhielten zwei Tage hintereinander jeweils 7 Uhr morgens eine s.c. Injektion von 150 mg/kg Phenylbutazon und die Tötung erfolgte sechs Stunden nach der letzten Injektion durch Nackenschlag. Die herauspräparierten Mägen wurden entlang der kleinen Kurvatur aufgeschnitten und die Schleimhautdefekte nach Zahl und Länge beurteilt. Die Applikation der Prüfsubstanzen erfolgte oral, eine halbe Stunde vor jeder Phenylbutazoninjektion.

Another series in a line: in vivo. Conditions: mouse, male and female mice, oral, read-out: akute Toxizität LD50. An excerpt: Die akute Toxizität wurde an jeweils 5 männlichen und 5 weiblichen Mäusen im Gewicht von 18 - 23 Gramm pro dosi bestimmt. Die Applikation der Prüfsubstanzen erfolgte oral. Die Berechnung der LD50 wurde nach Litchfield und Wilcoxon durchgeführt.
In series [4] the test system is Größe der Pupille. Put plainly: Effect on pupil size (mydriasis, method of Pulewka). Conditions: female mice, oral; dose that widens the pupil three-fold versus baseline.
Description: as §1
The mark [5] stands for this setting: female rats, oral dose immediately before start, immobilisation for 18 hours, probit regression analysis.

Read-outs that look alike come from different tables or passages of the source.

For `CN1C2CCC1CC(OC(=O)C(CO)c1ccccc1)C2` (racemic) [Atropin, reference compound], the ED50 – broadly, the dose at which the effect has come halfway, by size or by number of responders – in series [1] (po, 18 h) is 0.6 mg/kg. Besides, the “Pupillomotorik ED3-fach” value in the series with Größe der Pupille [2] is reported as 0,8 mg/kg.
Turning to `O=C1Nc2cc(Cl)ccc2N(C(=O)CN(CCO)CCO)c2ccccc21` [A, 8-Chlor-5,10-dihydro-5-[bis-(2-hydroxyäthyl)amino-acetyl]-11H-dibenzo[b,e] [1,4]diazepin-11-on], the ED50 in series [3] is 5 mg/kg; in series [1] (setting [5]) it was 6 mg/kg. Further, the “Pupillomotorik ED3-fach” value in the series with Größe der Pupille [2] is 30 mg/kg. Besides, in the series “in vivo”, the LD50 (as a rule, the dose at which mortality reaches 50%) amounted to 2000 mg/kg.
For `O=C1Nc2ccccc2N(C(=O)CN(CCO)CCO)c2ccccc21` [B, 5,10-Dihydro-5-[bis-(2-hydroxyäthyl) -aminoacetyl]-11H-dibenzo[b,e][1,4] diazepin-11-on], in that order: 1.6 mg/kg, 1 mg/kg, 4 mg/kg and 2000 mg/kg.
For `O=C1Nc2ccccc2N(C(=O)CN2CCN(C(=O)c3ccco3)CC2)c2ccccc21` [C, 5,10-Dihydro-5-(2-{4-[(2-furanyl)-carbonyl] -1-piperazinyl}-acetyl)-11H-dibenzo[b,e] [1,4]diazepin-11-on], in that order: 20 mg/kg, 14 mg/kg, 67 mg/kg and 2000 mg/kg.
Take `CN1C(=O)c2ccccc2N(C(=O)CN2CCN(C(=O)c3ccco3)CC2)c2ccc(Cl)cc21` [D, 8-Chlor-5, 10-dihydro-5-(2-{4-[(2-furanyl)-carbonyl]-1-piperazinyl}-acetyl)-10-methyl-11H-dibenzolbenzo[b,e][1,4]-diazepin-11-on]: the figures for the ED50 in series [3] and in series [1] (setting [5]) were 36 mg/kg and 26 mg/kg, respectively. In addition, the “Pupillomotorik ED3-fach” value in the series with Größe der Pupille [2] amounted to 250 mg/kg. In addition, the LD50 in the series “in vivo” stood at 1600 mg/kg.
Taken in the same sequence, the figures for `CN1C(=O)c2ccccc2N(C(=O)CN(CCO)CCO)c2ccccc21` [E, 5,10-Dihydro-10-methyl-5-[bis-{2-hydroxyäthyl)-amino-acetyl]-11H-dibenzo[b,e] [1,4]diazepin-11-on] were 22 mg/kg, 27 mg/kg, 95 mg/kg and 1000 mg/kg.
Turning to `CN1CCN(CC(=O)N2c3ccccc3C(=O)Nc3cccnc32)CC1` [Pi renzepin, Pirenzepin, reference compound], the ED50 was found to be 18 mg/kg in series [3] and 11 mg/kg in series [1] (setting [5]). Also, the “Pupillomotorik ED3-fach” value in the series on Größe der Pupille [4] was found to be 30 mg/kg.

(Values after EP0139627A1, “Process for the preparation of 5,10-dihydro-1H-dibenzo [B,E] [1,4] diazepin-11-ones substituted in position 5” (ARZNEIMITTELWERK DRESDEN GmbH, priority 1983, dated 1985).)
